“Also recorded” adds a separate entry of the source.
How the values were obtained:
[1] = tested on: bone marrow stromal cell line derived from C57BL/6NTac mice; experiment: In vitro clonogenic radiation survival curves; format: cell-based, mouse; details: 0 to 8 Gy
Experimental: FIG. 12A is a graph of surviving fraction versus radiation dose, illustrating the in vitro radioprotection and mitigation of bone marrow stromal cells. In vitro survival curves were performed using a bone marrow stromal cell line derived from C57BL/6NTac mice. Cells were incubated in 100 μM MMS350 for one hour before irradiation or was added to the cells 10 min after irradiation. Cells were irradiated to doses ranging from 0 to 8 Gy, plated in 4 well tissue culture plates, incubated for 7 days at 37° C. in a humidified CO2 incubator, and stained with crystal violet. Colonies of greater than 50 cells were counted and analyzed using a linear quadratic model or single-hit, multi-target model.
The murine C57BL/6 bone marrow stromal cell line (Epperly M W, Sikora C A, Defilippi S, Gretton J E, Greenberger J S. Bone marrow origin of myofibroblasts in irradiation pulmonary fibrosis. Am J Resp Molecular Cell Biology 2003; 29:213-224) and its use in clonogenic radiation survival curves has been described (Epperly M W, Gretton J E, Bernarding M, Nie S, Rasul B, Greenberger J S. Mitochondrial localization of copper/zinc superoxide dismutase (Cu/ZnSOD) confers radioprotective functions in vitro and in vivo. Radiation Research 2003; 160:568-578).
Cell lines were irradiated at dose rate of 70 cGy per minute using a Cesium Gamma Cell Irradiator according to published methods. […]

[2] = Compound storage in 25% w/w solutions of 3 and NMP; format: physicochemical; details: 25% w/w 3 in NMP, −20° C.
Experimental: Because sulfoxide 3 is a solid, it would have to be mixed with an appropriate water-soluble cosolvent to act as a compound storage additive. NMP was chosen for exploring this potential application due to its thermal stability and low toxicity. […] The compound test set (FIG. 2) was stored in 25% w/w solutions of 3 and NMP for 6 weeks at −20° C.

[3] = tested on: fibrotic phase associated RNA (TGF-β, TLR4, TLR7), bromodomain transcripts; experiment: RT-PCR of irradiation induced gene transcripts in lung; format: in vivo, mouse; details: 20 Gy thoracic irradiation, MMS350 in drinking water
Experimental: To isolate different cellular compartments of the lung, mice were sacrificed and the pulmonary cavity was opened, and lungs perfused by injecting 5 ml of phosphate-buffered saline (PBS) into the right ventricle of the heart. To isolate pulmonary endothelial cells, the lungs were filled with 1 ml of dispase (39.65 mg/ml), allowed to collapse, and then expanded with 0.5 ml of a 1% low-melt agarose, which had been stored at 45° C. in a water bath. The lungs were immediately covered with ice and incubated for 2 minutes. […] The cells were analyzed by flow cytometry with PECAM+ endothelial cells and PECAM− and CD45− cells alveolar cells isolated.
RNA was extracted from mouse lung or purified cell populations using the TRIzol reagent (Invitrogen, Carlsbad, Calif.) following the manufacturer's instructions, quantified using a spectrophotometer, and stored at −80° C. […]

## CC1(C[S+]([O-])CC2(C)COC2)COC1 [Compound 3, 3,3′-Sulfinylbis(methylene)bis(3-methyloxetane)]
[1]; 100 μM MMS350 added 10 min after irradiation, control 1.9±0.1, p=0.0444
  D0: 2.4±0.3
[1]; 100 μM MMS350 for one hour before irradiation, control 5.8±1.1, p=0.0039
  shoulder on the survival curve (ñ): 14.9±2.9
[2]
  precipitation on storage: partly precipitated from the solution
[3]
  bromodomain transcripts: little effect on bromodomain transcripts
  expression of fibrosis phase mRNA: decreased expression of fibrosis phase mRNA expression; also recorded: downregulation of transcription of mRNA associated with the late pulmonary fibrotic reaction

From US10251860B2, “Compounds for bone healing” (University of Pittsburgh—Of the Commonwealth System of …, priority 2015, dated 2019)
